The values below come from US9221802B2, “Arylethynyl derivatives” (Hoffmann-La Roche Inc., priority 2012, dated 2015).

pEC50: −log10 of the molar value. Where two headings read alike, the source gives them in different places.

For data set [1], the target named is human mGlu5a receptor (Homo sapiens (Human), UniProt P41594). Briefly: Intracellular Ca2+ mobilization assay. To be noted: for pEC50 / EC50: HEK-293 cells expressing human mGlu5a; for pEC50: PAM activity in presence of EC20 L-glutamate, read-out: Ec50; for Emax: maximal response in % of maximal stimulatory effect of saturating L-glutamate, read-out: Efficacy [%]; for EC50: PAM activity, read-out: EC50 (nM) mGlu5 PAM. It counts as cell-based. How it is done: A monoclonal HEK-293 cell line stably transfected with a cDNA encoding for the human mGlu5a receptor was generated; for the work with mGlu5 Positive Allosteric Modulators (PAMs), a cell line with low receptor expression levels and low constitutive receptor activity was selected to allow the differentiation of agonistic versus PAM activity. Cells were cultured according to standard protocols (Freshney, 2000) in Dulbecco's Modified Eagle Medium with high glucose supplemented with 1 mM glutamine, 10% (vol/vol) heat-inactivated bovine calf serum, Penicillin/Streptomycin, 50 μg/ml hygromycin and 15 μg/ml blasticidin (all cell culture reagents and antibiotics from Invitrogen, Basel, Switzerland).
Chain of human mGlu5a receptor (P41594 other isoform, or with tags, fused parts or gaps): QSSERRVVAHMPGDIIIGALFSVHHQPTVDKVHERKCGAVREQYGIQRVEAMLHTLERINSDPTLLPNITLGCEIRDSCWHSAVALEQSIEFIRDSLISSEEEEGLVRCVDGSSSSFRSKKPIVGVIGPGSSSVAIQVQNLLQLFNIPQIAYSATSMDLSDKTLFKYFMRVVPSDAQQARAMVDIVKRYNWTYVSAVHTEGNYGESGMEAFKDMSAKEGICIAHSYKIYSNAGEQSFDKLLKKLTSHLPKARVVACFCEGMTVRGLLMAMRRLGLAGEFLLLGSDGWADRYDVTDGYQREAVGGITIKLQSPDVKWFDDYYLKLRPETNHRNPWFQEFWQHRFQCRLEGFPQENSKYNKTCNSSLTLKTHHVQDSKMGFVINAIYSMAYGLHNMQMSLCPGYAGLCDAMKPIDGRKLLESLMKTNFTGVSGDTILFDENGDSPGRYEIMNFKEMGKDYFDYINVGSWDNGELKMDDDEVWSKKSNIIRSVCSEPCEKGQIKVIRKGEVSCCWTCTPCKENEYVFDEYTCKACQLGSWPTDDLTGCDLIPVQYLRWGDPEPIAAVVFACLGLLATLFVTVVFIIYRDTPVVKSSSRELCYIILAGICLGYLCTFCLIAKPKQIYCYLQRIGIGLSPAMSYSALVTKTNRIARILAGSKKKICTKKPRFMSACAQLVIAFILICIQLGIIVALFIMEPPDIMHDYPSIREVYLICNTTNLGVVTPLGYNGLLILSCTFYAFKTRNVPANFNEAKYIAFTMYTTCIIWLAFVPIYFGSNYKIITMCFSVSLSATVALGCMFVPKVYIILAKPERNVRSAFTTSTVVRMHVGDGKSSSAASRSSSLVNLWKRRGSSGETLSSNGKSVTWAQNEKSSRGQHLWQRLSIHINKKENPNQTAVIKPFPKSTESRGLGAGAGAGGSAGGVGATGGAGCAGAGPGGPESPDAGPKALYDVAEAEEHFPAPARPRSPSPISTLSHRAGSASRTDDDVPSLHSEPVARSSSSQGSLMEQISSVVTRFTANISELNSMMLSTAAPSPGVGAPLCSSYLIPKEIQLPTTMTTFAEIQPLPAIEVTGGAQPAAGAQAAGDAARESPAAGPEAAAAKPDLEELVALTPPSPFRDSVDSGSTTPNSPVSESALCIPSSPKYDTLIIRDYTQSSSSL
About 24 hrs before an experiment, 5×10^4 cells/well were seeded in poly-D-lysine coated, black/clear-bottomed 96-well plates. The cells were loaded with 2.5 μM Fluo-4AM in loading buffer (1×HBSS, 20 mM HEPES) for 1 hr at 37° C. and washed five times with loading buffer. The cells were transferred into a Functional Drug Screening System 7000 (Hamamatsu, Paris, France), and 11 half logarithmic serial dilutions of test compound at 37° C. were added and the cells were incubated for 10-30 min. with on-line recording of fluorescence. Following this pre-incubation step, the agonist L-glutamate was added to the cells at a concentration corresponding to EC20 (typically around 80 μM) with on-line recording of fluorescence; in order to account for day-to-day variations in the responsiveness of cells, the EC20 of glutamate was determined immediately ahead of each experiment by recording of a full dose-response curve of glutamate. Responses were measured as peak increase in fluorescence minus basal (i.e. fluorescence without addition of L-glutamate), normalized to the maximal stimulatory effect obtained with saturating concentrations of L-glutamate. Graphs were plotted with the % maximal stimulatory using XLfit, a curve fitting program that iteratively plots the data using Levenburg Marquardt algorithm. The single site competition analysis equation used was y=A+((B−A)/(1+((x/C)D))), where y is the % maximal stimulatory effect, A is the minimum y, B is the maximum y, C is the EC50, x is the log 10 of the concentration of the competing compound and D is the slope of the curve (the Hill Coefficient). From these curves the EC50 (concentration at which half maximal stimulation was achieved), the Hill coefficient as well as the maximal response (=Efficacy) in % of the maximal stimulatory effect obtained with saturating concentrations of L-glutamate were calculated.
A depression of the signal observed after addition of the EC20 concentration of L-glutamate was indicative of an inhibitory activity of the test compound.
The Intracellular Ca^2+ mobilization assay as described before was used for determination of EC50 values.
In general terms: A change in cytosolic calcium serves as a functional read-out for many receptors and channels.

The nature of data set [2]: Glutathione (GSH) addition assay after metabolic activation. Format: in vitro ADME, human. Also noted: key: Samples for which the mass of a covalent adduct to a reactive metabolite was clearly detected are indicated as FLAG (positive); Compounds for which no adduct was detected are designated NO FLAG (negative). Particulars: glutathione adduct detection after metabolic activation. The procedure:
The assay conditions for the detection of glutathione conjugates follow the procedure described by C. M. Dieckhaus et al. in Chem. Res. Toxicol., 18, 630-638 (2005). Samples for which the mass of a covalent adduct to a reactive metabolite was clearly detected are indicated as FLAG (positive). Compounds for which no adduct was detected are designated NO FLAG (negative).
The “gold standard” CVB (covalent binding) assay, which detects the formation of covalent adducts by incubation of test compounds with human liver microsomes (HLM) needs to be conducted with 14C-labelled material. This is not appropriate for routine screening purposes. The glutathione assay after metabolic activation (see assay description) is appropriate for routine screening, and compounds that show significant activity in this assay are very likely to show activity in the CVB assay. […] Generally speaking, compounds of the present invention therefore have a clear advantage with respect to drug safety due to their much less pronounced tendency to form reactive metabolites compared to structurally similar compounds of prior art.

By pEC50 is commonly meant −log10 of the EC50, conventionally taken in molar units. Usually EC50 stands for the concentration needed to bring the measured effect to its halfway point.

`CC1(C)CCN(c2ccc(C#Cc3cc(F)ccc3F)cn2)C(=O)O1` [Ref. Ex. 81]: in data set [1], the pEC50 was 7.92 and the Emax worked out at 95%. Moreover, the “GSH [HLM]” value in data set [2] is on record as “FLAG”.

As to `O=C1OC[C@H]2CCC[C@H]2N1c1ccc(C#Cc2ccc(F)cc2)cn1` [Ex. 3, (4aS,7aR)-1-[5-(4-Fluorophenylethynyl)-pyridin-2-yl]-hexahydro-cyclopenta[d][1,3]oxazin-2-one], in data set [1], the pEC50 is 8.00, the EC50 stood at 10 nM and the Emax was 40%. In addition, the “GSH [HLM]” value in data set [2] is “NO FLAG”.

Take `O=C1OC[C@H]2CCC[C@H]2N1c1ccc(C#Cc2cc(F)ccc2F)cn1` [Ex. 4, (4aS,7aR)-1-[5-(2,5-Difluorophenylethynyl)-pyridin-2-yl]-hexahydro-cyclopenta[d]-[1,3]oxazin-2-one]: in data set [1], the pEC50 is 7.82, the EC50 is 15 nM and the Emax worked out at 35%. Moreover, the “GSH [HLM]” value in data set [2] is listed as “NO FLAG”.

`CC1(C)CCN(c2ccc(C#Cc3cccc(F)c3)cn2)C(=O)O1` [Ref. Ex. 76]: in data set [1], the negative-log EC50 (pEC50) was 7.89 and the Emax was 124%. For the same molecule, the “GSH [HLM]” value in data set [2] is reported as “FLAG”.

Turning to `CC1(C)CCN(c2ccc(C#Cc3ccc(F)cc3)cn2)C(=O)O1` [Ref. Ex. 79], in data set [1], the pEC50 is 7.66 and the Emax was found to be 85%. The “GSH [HLM]” value in data set [2] is reported as “FLAG”.

In the case of `O=C1O[C@H]2CCC[C@H]2CN1c1ccc(C#Cc2ccccc2)cn1` [Ref. Ex. 103], in data set [1], the pEC50 is 7.57 and the Emax was determined as 123%. The “GSH [HLM]” value in data set [2] is “FLAG”.

Regarding `CC1(C)COC(=O)N(c2ccc(C#Cc3ccccc3)cn2)C1` [Ref. Ex. 20], in data set [1], the pEC50 is 7.57 and the Emax stood at 135%.

As for `CC1(C)CCN(c2ccc(C#Cc3ccccc3)cn2)C(=O)O1` [Ref. Ex. 72], in data set [1], the pEC50 is 8.00 and the Emax came to 86%. In addition, the “GSH [HLM]” value in data set [2] is recorded as “FLAG”.

As to `O=C1OC[C@H]2CCC[C@H]2N1c1ccc(C#Cc2ccccc2)cn1` [Ex. 1, (4aS,7aR)-1-(5-Phenylethynyl-pyridin-2-yl)-hexahydro-cyclopenta[d][1,3]oxazin-2-one], in data set [1], the pEC50 is 7.66, the EC50 turned out to be 22 nM and the Emax was 38%. Moreover, the “GSH [HLM]” value in data set [2] is reported as “NO FLAG”.

On to `O=C1OC[C@H]2CCC[C@H]2N1c1ccc(C#Cc2cccc(F)c2)cn1` [Ex. 2, (4aS,7aR)-1-[5-(3-Fluorophenylethynyl)-pyridin-2-yl]-hexahydro-cyclopenta[d][1,3]oxazin-2-one], for which, in data set [1], the negative-log EC50 (pEC50) was 8.00, the EC50 turned out to be 10 nM and the Emax was 43%. In data set [2], the “GSH [HLM]” value was “NO FLAG”.
